This passage reports IC50 results from patent publication US12371454B2, “Cyclic peptide compound having Kras inhibitory action” (priority 2019, dated 2025).

A word on the pIC50: it is −log10 of the IC50, conventionally taken in molar units.

Structures are written as SMILES. pIC50: −log10 of the molar value. Starred links: 1 amine or outer side, 2 acyl side, 3 side chain; linkers in the order of their positions; H or OH if unused. Positions of bridges follow the written chain, without caps; N, C: chain ends. Non-standard residues stand in square brackets, D forms with d. Residues, ends and D or L forms follow the SMILES beside them. *: point of attachment. NMeAbu(3,3-F2-piperidino) = CN[C@@H](CCN1CCCC(F)(F)C1)C(=O)O; hPhe(3-Cl-4-CF3) = N[C@@H](CCc1ccc(C(F)(F)F)c(Cl)c1)C(=O)O; hPhe(3-F,4-CF3) = N[C@@H](CCc1ccc(C(F)(F)F)c(F)c1)C(=O)O; NMePhe(4-CF3) = CN[C@@H](Cc1ccc(C(F)(F)F)cc1)C(=O)O; hPhe(4-CF3) = N[C@@H](CCc1ccc(C(F)(F)F)cc1)C(=O)O; NMePhe(4-Cl) = CN[C@@H](Cc1ccc(Cl)cc1)C(=O)O; NMePhe(4-Me) = CN[C@@H](Cc1ccc(C)cc1)C(=O)O; NMePhe(2-Cl) = CN[C@@H](Cc1ccccc1Cl)C(=O)O; NMePhe(2-Me) = CN[C@@H](Cc1ccccc1C)C(=O)O; NMedβ3hAla = C[C@H](CC(=O)[*:2])N(C)[*:1]; Abu(4,4,4-F3) = N[C@@H](CC(F)(F)F)C(=O)O; NMeAla(cPent) = CN[C@@H](CC1CCCC1)C(=O)O; Phe(3-I) = N[C@@H](Cc1cccc(I)c1)C(=O)O; Phe(2-F) = N[C@@H](Cc1ccccc1F)C(=O)O; NMeY = CN[C@@H](Cc1ccc(O)cc1)C(=O)O; NMeCha = CN[C@@H](CC1CCCCC1)C(=O)O; Azetidine(3,3-F2) = FC1(F)CN(*)C1; Hyp = O=C(O)[C@@H]1C[C@@H](O)CN1; NMeChg = CN[C@H](C(=O)O)C1CCCCC1; NMeD = CN[C@@H](CC(=O)O)C(=O)O; NMeL = CN[C@@H](CC(C)C)C(=O)O; αMeL = CC(C)C[C@](C)(N)C(=O)O; NMeV = CN[C@H](C(=O)O)C(C)C; d(β3hA) = C[C@@H](N)CC(=O)O; NMeS = CN[C@@H](CO)C(=O)O; NMeA = CN[C@@H](C)C(=O)O; NMeAib = CNC(C)(C)C(=O)O; Nle = CCCC[C@H](N)C(=O)O; Piperidide = C1CCN(*)CC1; Pyrrolidide = C1CCN(*)C1; Ac5c = NC1(C(=O)O)CCCC1; Aze = O=C(O)[C@@H]1CCN1; Ac4c = NC1(C(=O)O)CCC1; Isopentyl = CC(C)CC*; Sar = CNCC(=O)O

T1 sequence (P01116 1-188 isoform P01116-2 G12D): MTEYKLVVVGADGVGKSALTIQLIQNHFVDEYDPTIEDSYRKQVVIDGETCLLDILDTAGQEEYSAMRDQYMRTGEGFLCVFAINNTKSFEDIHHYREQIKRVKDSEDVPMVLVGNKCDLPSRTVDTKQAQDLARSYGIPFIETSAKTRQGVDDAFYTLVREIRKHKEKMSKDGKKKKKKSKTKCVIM

This assay has as its target T1, Kras and SOS1 (biotin-tagged human Kras loaded with GDP, His-tagged human SOS1) (Homo sapiens, UniProt P01116, G12D).
T1 construct: made in house; host or cells: E. coli (stated for Kras only)
The experiment in a line: Protein-protein interaction inhibition between Kras and SOS1 (KrasGl2D-SOS PPI) using AlphaScreen. Format: binding. Particulars: AlphaScreen; biotin-tagged human Kras loaded with GDP, His-tagged human SOS1; read-out: KRAS G12D-SOS PPI IC50. In short, it runs like this: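 Kras was produced in E. coli, purified, then loaded with GDP. It was paired via streptavidin acceptor beads with His-SOS1 held on nickel donor beads, and proximity signal at 520-620 nm was read after 680 nm illumination.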
(In general: Bead proximity is the source of the signal in Alpha formats.)
Consider `CC[C@H](C)[C@@H]1NC(=O)[C@H](C)N(C)C(=O)C[C@@H](C(=O)N2CCCC2)NC(=O)[C@H](CC(C)C)N(C)C(=O)[C@H](COCCC(C)C)N(C)C(=O)[C@H](CC(C)C)NC(=O)[C@H](CCc2ccc(C(F)(F)F)cc2)NC(=O)CN(C)C(=O)[C@H](Cc2ccc(Cl)cc2)N(C)C(=O)CN(C)C(=O)CN(C)C1=O` [Compound 675] ([NMeA]I[Sar][Sar][NMePhe(4-Cl)][Sar][hPhe(4-CF3)]L[NMeS](Isopentyl)[NMeL]D-Pyrrolidide; lactam N-11), for which the pIC50 is 7.23.
In the case of `CC[C@H](C)[C@@H]1NC(=O)[C@H](C)N(C)C(=O)C[C@@H](C(=O)N2CCCCC2)N(C)C(=O)[C@H](C(C)C)N(C)C(=O)[C@H](CC(F)(F)F)NC(=O)[C@H](CC(=O)N2CC(F)(F)C2)N(C)C(=O)[C@H](CCc2ccc(C(F)(F)F)c(Cl)c2)NC(=O)CN(C)C(=O)[C@H](CC2CCCCC2)N(C)C(=O)CN(C)C(=O)CN(C)C1=O` [Compound 679] ([NMeA]I[Sar][Sar][NMeCha][Sar][hPhe(3-Cl-4-CF3)][NMeD](Azetidine(3,3-F2))[Abu(4,4,4-F3)][NMeV][NMeD]-Piperidide; lactam N-11), the pIC50 is 7.43.
To `CCCC[C@@H]1NC(=O)[C@H](Cc2ccccc2F)NC(=O)CN(C)C(=O)[C@H](Cc2ccc(OC)cc2)N(C)C(=O)CN(C)C(=O)CN(C)C(=O)[C@H]([C@@H](C)CC)NC(=O)[C@H](CC(C)C)N(C)C(=O)C[C@@H](C(=O)N2CCCCC2)N(C)C(=O)[C@H](CC(C)C)NC(=O)[C@H](Cc2ccc(OC)cc2)N(C)C1=O` [Compound 681] ([NMeL]I[Sar][Sar][NMeY](Me)[Sar][Phe(2-F)][Nle][NMeY](Me)L[NMeD]-Piperidide; lactam N-11) belongs 8.23; to `CC[C@H](C)[C@@H]1NC(=O)[C@H](C)N(C)C(=O)C[C@@H](C(=O)N2CCCCC2)N(C)C(=O)[C@H](C(C)C)N(C)C(=O)C2(CCCC2)NC(=O)[C@H](CCN2CCCC(F)(F)C2)N(C)C(=O)[C@H](CCc2ccc(C(F)(F)F)c(Cl)c2)NC(=O)CN(C)C(=O)[C@H](CC2CCCCC2)N(C)C(=O)[C@@H]2CCN2C(=O)[C@H](C)N(C)C1=O` [Compound 682] ([NMeA]I[NMeA][Aze][NMeCha][Sar][hPhe(3-Cl-4-CF3)][NMeAbu(3,3-F2-piperidino)][Ac5c][NMeV][NMeD]-Piperidide; lactam N-11), 7.70.
Consider `CC[C@H](C)[C@@H]1NC(=O)[C@H](CC(C)C)N(C)C(=O)C[C@@H](C)N(C)C(=O)[C@H](CC(C)C)NC(=O)C(C)(C)N(C)C(=O)[C@H](CC(C)C)NC(=O)[C@H](CCc2ccc(C(F)(F)F)c(F)c2)NC(=O)CN(C)C(=O)[C@H](CC2CCCCC2)N(C)C(=O)[C@@H]2CCN2C(=O)[C@H](C)N(C)C1=O` [Compound 686] (cyclo([Aze][NMeCha][Sar][hPhe(3-F,4-CF3)]L[NMeAib]L[NMedβ3hAla][NMeL]I[NMeA])), for which the pIC50 is 6.77.
Turning to `CC[C@H](C)[C@@H]1NC(=O)[C@H](CC(C)C)N(C)C(=O)C[C@@H](C(=O)N2CCCCC2)N(C)C(=O)[C@H](C2CCCCC2)N(C)C(=O)C2(CCCC2)NC(=O)[C@H](CC(=O)O)N(C)C(=O)[C@H](CCc2ccc(C(F)(F)F)c(Cl)c2)NC(=O)CN(C)C(=O)[C@H](CC2CCCCC2)N(C)C(=O)CN(C)C(=O)CN(C)C1=O` [Compound 688] ([NMeL]I[Sar][Sar][NMeCha][Sar][hPhe(3-Cl-4-CF3)][NMeD][Ac5c][NMeChg][NMeD]-Piperidide; lactam N-11), the pIC50 is 8.64.
The same measure for `CCCC[C@@H]1NC(=O)[C@H](CCc2ccc(C(F)(F)F)c(Cl)c2)NC(=O)CN(C)C(=O)[C@H](CC2CCCC2)N(C)C(=O)[C@@H]2CCN2C(=O)[C@H](C)N(C)C(=O)[C@H]([C@@H](C)CC)NC(=O)[C@H](CC(C)C)N(C)C(=O)C[C@@H](C(=O)N2CCCCC2)N(C)C(=O)[C@H](CC(C)C)NC(=O)C(C)(C)N(C)C1=O` [Compound 691] ([NMeL]I[NMeA][Aze][NMeAla(cPent)][Sar][hPhe(3-Cl-4-CF3)][Nle][NMeAib]L[NMeD]-Piperidide; lactam N-11): 8.15; for `CCCC[C@@H]1NC(=O)[C@H](Cc2cccc(I)c2)NC(=O)CN(C)C(=O)[C@H](Cc2ccc(Cl)cc2)N(C)C(=O)CN(C)C(=O)CN(C)C(=O)[C@H]([C@@H](C)CC)NC(=O)[C@H](CC(C)C)N(C)C(=O)C[C@@H](C(=O)N2CCCCC2)N(C)C(=O)[C@H](CC(C)C)NC(=O)[C@H](Cc2ccccc2C)N(C)C1=O` [Compound 696] ([NMeL]I[Sar][Sar][NMePhe(4-Cl)][Sar][Phe(3-I)][Nle][NMePhe(2-Me)]L[NMeD]-Piperidide; lactam N-11): 7.40; for `CC[C@H](C)[C@@H]1NC(=O)[C@H](C)N(C)C(=O)C[C@@H](C)NC(=O)[C@H](C(C)C)N(C)C(=O)C2(CCCC2)NC(=O)[C@@H]2CCCN2C(=O)[C@H](CCc2ccc(C(F)(F)F)c(Cl)c2)NC(=O)CN(C)C(=O)[C@H](CC2CCCCC2)N(C)C(=O)CN(C)C(=O)CN(C)C1=O` [Compound 697] (cyclo([Ac5c][NMeV][d(β3hA)][NMeA]I[Sar][Sar][NMeCha][Sar][hPhe(3-Cl-4-CF3)]P)): 7.92.
Take `CCO[C@@H]1C[C@H]2C(=O)NC3(CCC3)C(=O)N(C)[C@@H](C3CCCCC3)C(=O)N(C)[C@H](C)CC(=O)N(C)[C@@H](CC(C)C)C(=O)N[C@@H]([C@@H](C)CC)C(=O)N(C)[C@@H](C)C(=O)N3CC[C@H]3C(=O)N(C)[C@@H](Cc3ccc(C(F)(F)F)cc3)C(=O)N(C)CC(=O)N[C@@H](CCc3ccc(C(F)(F)F)c(Cl)c3)C(=O)N2C1` [Compound 698] (cyclo([Ac4c][NMeChg][NMedβ3hAla][NMeL]I[NMeA][Aze][NMePhe(4-CF3)][Sar][hPhe(3-Cl-4-CF3)][Hyp](Et))): the pIC50 was 7.64.
For `CC[C@H](C)[C@@H]1NC(=O)[C@H](C)N(C)C(=O)C[C@@H](C(=O)N2CCCC2)N(C)C(=O)[C@H](C(C)C)N(C)C(=O)[C@@H](C)NC(=O)[C@H](Cc2ccccc2Cl)N(C)C(=O)[C@H](CCc2ccc(C(F)(F)F)c(Cl)c2)NC(=O)CN(C)C(=O)[C@H](CC2CCCCC2)N(C)C(=O)CN(C)C(=O)CN(C)C1=O` [Compound 702] ([NMeA]I[Sar][Sar][NMeCha][Sar][hPhe(3-Cl-4-CF3)][NMePhe(2-Cl)][dA][NMeV][NMeD]-Pyrrolidide; lactam N-11), the negative-log IC50 (pIC50) is 6.89.
In the case of `CC[C@H](C)[C@@H]1NC(=O)[C@H](CC(C)C)N(C)C(=O)C[C@@H](C(=O)N2CCCCC2)N(C)C(=O)[C@H](CC(C)C)NC(=O)C(C)(C)N(C)C(=O)[C@H](Cc2ccc(OC)cc2)NC(=O)[C@H](Cc2cccc(I)c2)NC(=O)CN(C)C(=O)[C@H](Cc2ccc(C)cc2)N(C)C(=O)[C@@H]2CCN2C(=O)[C@H](C)N(C)C1=O` [Compound 703] ([NMeL]I[NMeA][Aze][NMePhe(4-Me)][Sar][Phe(3-I)]Y(Me)[NMeAib]L[NMeD]-Piperidide; lactam N-11), the pIC50 was 8.07.
For the compound `CC[C@H](C)[C@@H]1NC(=O)[C@H](CC(C)C)N(C)C(=O)C[C@@H](C)NC(=O)[C@H](C(C)C)N(C)C(=O)[C@](C)(CC(C)C)NC(=O)[C@@H]2CCCN2C(=O)[C@H](CCc2ccc(C(F)(F)F)c(Cl)c2)NC(=O)CN(C)C(=O)[C@H](CC2CCCCC2)N(C)C(=O)CN(C)C(=O)CN(C)C1=O` [Compound 705] (cyclo(I[Sar][Sar][NMeCha][Sar][hPhe(3-Cl-4-CF3)]P[αMeL][NMeV][d(β3hA)][NMeL])), the pIC50 is 6.44.
